# Experimental data as given in ChEMBL document CHEMBL1201862, “PubChem BioAssay data set” (2004).
#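 Tested at 5 concentrations; 48 h exposure; 96-well plates; endpoints linearly interpolated, else capped at highest concentration. The concentration for 50% growth inhibition is given as GI50.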 Calls of active or inactive are those of the source. Rule as the data show it: active = GI50 up to about 1.1 µM and inactive = higher.
# Key:
# Assay in all cases: NCI anticancer screen, dose series, 48 h
# CCRF-CEM = tested on: CCRF-CEM
# COLO 205 = tested on: COLO 205
# DMS-114 = tested on: DMS-114
# HCC 2998 = tested on: HCC 2998
# HL-60 = tested on: HL-60
# HOP-62 = tested on: HOP-62
# HT-29 = tested on: HT-29
# K562 = tested on: K562
# KM12 = tested on: KM12
# LOX IMVI = tested on: LOX IMVI
# NCI-H23 = tested on: NCI-H23
# NCI-H460 = tested on: NCI-H460
# OVCAR-3 = tested on: OVCAR-3
# OVCAR-5 = tested on: OVCAR-5
# SK-OV-3 = tested on: SK-OV-3
# SN12C = tested on: SN12C
# SR = tested on: SR
# OVCAR-8 = tested on: OVCAR-8
Structure (SMILES),GI50 (CCRF-CEM),GI50 (COLO 205),GI50 (DMS-114),GI50 (HCC 2998),GI50 (HL-60),GI50 (HOP-62),GI50 (HT-29),GI50 (K562),GI50 (KM12),GI50 (LOX IMVI),GI50 (NCI-H23),GI50 (NCI-H460),GI50 (OVCAR-3),GI50 (OVCAR-5),GI50 (SK-OV-3),GI50 (SN12C),GI50 (SR),GI50 (OVCAR-8)
Cc1[nH]c2ccccc2c1C1Cc2ccccc2N1C(=O)/C=C\C(=O)O (configuration not stated),31 µM (inactive),30.4 µM (inactive),33.4 µM (inactive),45.6 µM (inactive),26.4 µM (inactive),31.3 µM (inactive),66.1 µM (inactive),35.6 µM (inactive),32.6 µM (inactive),18.6 µM (inactive),56.4 µM (inactive),> 100 µM (inactive),55.2 µM (inactive),> 100 µM (inactive),> 100 µM (inactive),29.3 µM (inactive),29.6 µM (inactive),
CCOC(=O)C1=C(C)N(NC(=O)Nc2ccccc2)C2(N)N(NC(=O)Nc3ccccc3)C(C)=C(C(=O)OCC)C12C(=O)OCC (configuration not stated),,1.85 µM (inactive),25.5 µM (inactive),27.4 µM (inactive),35.2 µM (inactive),28.6 µM (inactive),54.3 µM (inactive),> 100 µM (inactive),> 100 µM (inactive),36.2 µM (inactive),64 µM (inactive),37.9 µM (inactive),49.2 µM (inactive),> 100 µM (inactive),29.9 µM (inactive),1.66 µM (inactive),34 µM (inactive),35.9 µM (inactive)
N#CCc1c(-c2ccccc2)n(S(=O)(=O)c2ccccc2)c2ccccc12,> 100 µM (inactive),> 100 µM (inactive),64.9 µM (inactive),> 100 µM (inactive),> 100 µM (inactive),36.1 µM (inactive),> 100 µM (inactive),46.9 µM (inactive),> 100 µM (inactive),,33.7 µM (inactive),> 100 µM (inactive),> 100 µM (inactive),> 100 µM (inactive),,,12.2 µM (inactive),> 100 µM (inactive)
O=C(O)C[C@H]1CCCCC12CCOC2=O (some centres not stated),> 100 µM (inactive),> 100 µM (inactive),> 100 µM (inactive),> 100 µM (inactive),> 100 µM (inactive),> 100 µM (inactive),> 100 µM (inactive),> 100 µM (inactive),> 100 µM (inactive),> 100 µM (inactive),> 100 µM (inactive),> 100 µM (inactive),> 100 µM (inactive),> 100 µM (inactive),> 100 µM (inactive),> 100 µM (inactive),> 100 µM (inactive),> 100 µM (inactive)
CC(=O)OCC(=O)[C@@]12OC(C)(C)O[C@@H]1C[C@H]1[C@@H]3CC(C=O)=C4C=C(OCCCl)CC[C@]4(C)[C@@]3(F)[C@@H](O)C[C@@]12C [FORMOCORTAL],0.486 µM (active),18 µM (inactive),> 100 µM (inactive),15.3 µM (inactive),15.9 µM (inactive),24.8 µM (inactive),12.5 µM (inactive),4.74 µM (inactive),16.7 µM (inactive),25.8 µM (inactive),15.8 µM (inactive),14.1 µM (inactive),25.9 µM (inactive),14.3 µM (inactive),1.39 µM (inactive),13.3 µM (inactive),13 µM (inactive),12.9 µM (inactive)
CCN1C(=O)N(C)C(O)c2c1nc1ccccn1c2=O (configuration not stated),27.8 µM (inactive),21.2 µM (inactive),7.4 µM (inactive),20.3 µM (inactive),24.9 µM (inactive),28.1 µM (inactive),27.6 µM (inactive),34 µM (inactive),36.5 µM (inactive),17.5 µM (inactive),24.9 µM (inactive),20.6 µM (inactive),26.1 µM (inactive),,26.1 µM (inactive),23.3 µM (inactive),29.1 µM (inactive),18.9 µM (inactive)
Cc1cc(Br)ccc1/N=N/c1c(C)nn(-c2ccccc2)c1-c1ccccc1,21.2 µM (inactive),> 100 µM (inactive),89.5 µM (inactive),,5.05 µM (inactive),> 100 µM (inactive),44.5 µM (inactive),17 µM (inactive),57 µM (inactive),16.6 µM (inactive),> 100 µM (inactive),45.8 µM (inactive),99.5 µM (inactive),53.7 µM (inactive),> 100 µM (inactive),97.5 µM (inactive),> 100 µM (inactive),> 100 µM (inactive)
CCCn1c(SCC)c2ccccc2c1-c1nc(F)nc(F)n1,> 100 µM (inactive),> 100 µM (inactive),> 100 µM (inactive),> 100 µM (inactive),> 100 µM (inactive),> 100 µM (inactive),> 100 µM (inactive),> 100 µM (inactive),> 100 µM (inactive),> 100 µM (inactive),> 100 µM (inactive),> 100 µM (inactive),> 100 µM (inactive),> 100 µM (inactive),,> 100 µM (inactive),> 100 µM (inactive),
NNC(=S)N/N=C/C(Cl)=C(\Cl)C(=O)O,> 100 µM (inactive),,> 100 µM (inactive),> 100 µM (inactive),> 100 µM (inactive),,> 100 µM (inactive),> 100 µM (inactive),,> 100 µM (inactive),> 100 µM (inactive),> 100 µM (inactive),> 100 µM (inactive),> 100 µM (inactive),,> 100 µM (inactive),> 100 µM (inactive),> 100 µM (inactive)
CC(C)c1cccc(=O)c(O)c1,0.845 µM (active),1.37 µM (inactive),2.24 µM (inactive),9.44 µM (inactive),2.02 µM (inactive),5.3 µM (inactive),3.07 µM (inactive),2.21 µM (inactive),8.34 µM (inactive),2.42 µM (inactive),2.53 µM (inactive),2.27 µM (inactive),1.24 µM (inactive),9.73 µM (inactive),15.8 µM (inactive),5.51 µM (inactive),0.959 µM (active),1.72 µM (inactive)
NNC(=O)/C(=C/c1cccc([N+](=O)[O-])c1)NC(=O)c1ccccc1,> 100 µM (inactive),> 100 µM (inactive),> 100 µM (inactive),> 100 µM (inactive),> 100 µM (inactive),> 100 µM (inactive),> 100 µM (inactive),> 100 µM (inactive),> 100 µM (inactive),> 100 µM (inactive),> 100 µM (inactive),> 100 µM (inactive),> 100 µM (inactive),77.3 µM (inactive),> 100 µM (inactive),> 100 µM (inactive),> 100 µM (inactive),> 100 µM (inactive)
O=C1C2C3C=C4c5ccccc5N(c5ccccc5)C4(C2C(=O)N1c1ccccc1)C1C(=O)N(c2ccccc2)C(=O)C31 (configuration not stated),8.81 µM (inactive),35.6 µM (inactive),> 100 µM (inactive),> 100 µM (inactive),> 100 µM (inactive),> 100 µM (inactive),6.56 µM (inactive),> 100 µM (inactive),> 100 µM (inactive),> 100 µM (inactive),> 100 µM (inactive),4.05 µM (inactive),,> 100 µM (inactive),> 10 µM (inactive),> 100 µM (inactive),6.35 µM (inactive),> 100 µM (inactive)
